Measured values published in patent US10675286B2, “Heterocyclic compounds and uses thereof” (Infinity Pharmaceuticals, Inc., priority 2014, dated 2020).
Read-outs that look alike come from different tables or passages of the source.

How the values were obtained:
[1] = Stability in simulated gastric fluid; format: physicochemical; details: 38° simulated gastric fluid
Source text: The phyiscochemical properties of Compound BB are drug-like, and suitable for use of the compound as a drug.

CT26 colon carcinoma = experiment: CT26 allograft colon cancer model; format: in vivo, mouse
Source text: CT26 is an N-nitroso-N-methylurethane-(NNMU) induced, undifferentiated mouse colon carcinoma cell line. It is cloned to generate the cell line designated CT26.WT (ATCC CRL-2638). The syngeneic CT26 colon cancer model is established by subcutaneous implantation of CT26 cells into BALB/c mice. This model has been extensively used to study the anti-tumor activity of immunotherapies (Yu et al., Clinical Cancer Research, 2010; Daraiswamy et al., Cancer Research, 2013). […] In some embodiments, a compound provided herein can be administered alone or in combination with an anti-PD-L1.
CT26 is an N-nitroso-N-methylurethane-(NNMU) induced, undifferentiated colon carcinoma cell line. It was cloned to generate the cell line designated CT26.WT (ATCC catalog number CRL-2638). 5-6 week old female, Balb/c mice (Jackson Labs) were implanted subcutaneously with 5×10^5 CT26 cells in 200 μl PBS. CT26 cells were cultured in DMEM supplemented with 10% FBS. Dosing commenced when tumors reached an average volume of […]. Administration of the compounds was performed according to the following Table:
Isotype control (Ultra-LEAF purified rat IgG2b, k isotype control, clone RTK4530, Lot B180477, Biolegend, Cat #70640)
Anti-PD-L1 antibody (Ultra-LEAF purified anti-mouse CD274-B7H1, PD-L1-, clone 10F9G2, Lot B178331, Biolegend, Cat #124318) […]
Body weights and tumor volumes were measured three times per week.

[2] = Target organ toxicity (TOT) study in rats, 10 days oral; format: in vivo
Protocol: A target organ toxicity (TOT) study was performed in rats. […] This study assessed clinical observations/mortality, body weights, clinical pathology, toxicokinetics, and histopathology of select tissues. The tissues studied were: Adrenal gland, Bone marrow (femur), Brain, Small Intestine (including GALT), Heart, Large Intestine, Kidney, Stomach, Liver, Pancreas, Spleen, Testis, and Thymus. Doses were selected based on repeat-dose tolerability study, PK and plasma protein binding, and cellular IC50s for PI3K isoforms.

[3] = Dose-exposure proportionality (FIG. 44); details: in vivo
[4] = system: M1 macrophage differentiation; experiment: M1 macrophage differentiation; format: cell-based; details: data not shown
Protocol: A similar experiment was performed on M1 differentiation.

M2 macrophage markers = experiment: M2 macrophage marker expression with or without PDL-1 antibody (FIG. 42); format: in vivo
[5] = Tumor growth, Compound BB alone and with 5-FU (FIG. 35); format: in vivo
Lewis Lung Carcinoma [6] = experiment: Lewis Lung Carcinoma model; format: in vivo; details: single agent
[7] = system: CXCL12 induced p-AKT in bone marrow derived macrophages; experiment: CXCL12-induced p-AKT induction assay in differentiated, polarized macrophages; format: cell-based, mouse; details: Mus musculus, Macrophage
Source text: Long bones from young C57B6 mice were harvested and bone marrow was extruded by gentle lavage of the bone marrow cavities with a 28 gauge needle. Red blood cells were removed using red blood cell lysis buffer (Sigma). Bone marrow cells were differentiated to macrophages using MCSF for 6 days (RPMI and 20% FCS) with one media change (with removal of all non-adherent cells) at day 3. Macrophages were polarized into M0 (MCSF), M1 (MCSF, IFNγ, and LPS for 1 day), or M2 (MCSF, IL4 for 2 days).
Polarized macrophages were lifted with Acutase, and plated at 0.5M cells per well (0.5 ml) in a deep well (2 ml) non adherant plate in polarization media for 1 hour. […] CXCL12 was added, and the cells were mixed on a plate shaker for 2 minutes. 1 ml of 37 degree FACS Lyse/fix buffer (BD bioscience) was added and the plate was mixed for 1 minute. The plates were spun and decanted and frozen at −80° C. Phospho AKT staining with anti Phospho AKT 473 PERCP labeled (Cell Signaling Technologies) was performed and measured by flow cytometry. Total cell MFI was used to calculate the effect of tested compound on CXCL12 induction of phospho AKT.

Lewis Lung Carcinoma [8] = experiment: Lewis Lung Carcinoma (LLC) tumor brei model; format: in vivo, mouse
Protocol: LLC Lewis Lung carcinoma model: LLC cells are derived from a spontaneous lung tumor from a C57BL/6 mouse and can be studied as a s.c. tumor when injected in the flank, or as an orthotopic tumor if injected i.v., following which it localizes to the lung.
Compound BB was tested in the Lewis Lung Carcinoma model, which is known in the art and briefly described hereinabove.
LLC tumor brei model was prepared and injected subcutaneously into a mouse in the hind flank region. The tumor brei was prepared as follows. LL2-Luc tumor cells were grown in culture in DMEM+10% FBS. Cells were implanted @ 1×10^6 cells/100 uL SC in the flank of C57 Albino mice (male) When tumors reached 1000 mm3, tumors were harvested. Only the white, living tissue was harvested. Any material containing visable blood or necrotic area was isolated away from the tumor tissue. Tumor tissue was placed in a Dounce tissue homoginized with 5 mLs of warm DMEM (no FBS). About 1-2 grams of tumor tissue was collected, homogenized, pooled into 50 mL falcon tube, and cells were counted. Cells were spinned @ 12,000 RPM, and FBS was pooled off. Cells were resuspended to equal 1×10^7 cells/mL with sterile PBS. 100 uL of cells/mouse SC at the hind flank region were implanted. This process was repeated one more time before conducting brei tumor efficacy study.
Flow cytometry was performed to obtain a more extensive cellular subset analysis. In particular, the study examined T cell vs. Myeloid cells, Myeloid cell subsets, Regulatory vs. effector T cells, and Tumor markers vs. WBC (e.g., PD-L1 expression on tumor).
Different populations of tumor-associated myeloid cells can be identified by flow cytometry, e.g., monocytic immature myeloid cells (iMC), Granulocytic iMCs/Neutrophils, Tumor Associated Macrophages (TAMs), and Granulocytic MDSCs. The different populations, and panels for detecting MDSCs, are described in Cancer Discovery 2011; 1:54-67. Tumors may vary in their myeloid cell composition.

TMD8 cell line = experiment: Combination isobologram in TMD8 cell line; format: cell-based; details: combination of Compound AA and Compound BB
[9] = system: Myeloid Derived Suppressor Cell; experiment: Myeloid Derived Suppressor Cell differentiation assay; format: cell-based

In the case of C[C@H](NC(=O)c1c(N)nn2cccnc12)c1cc2cccc(C#Cc3cnn(C)c3)c2c(=O)n1-c1ccccc1 [Compound BB], the “Stability in simulated gastric fluid” value [1] is reported as > 4 h, the “MDSC expansion after cyclophosphamide treatment (FIG. 28)” value (CT26 colon carcinoma; CT26 model, 5-9 day time frame) is reported as “decreased” and the “Monocytic iMCs (flow cytometry, FIG. 38B)” value (CT26 colon carcinoma; CT26 subcutaneous tumors) is reported as “monocytic iMCs were decreased”. For the same compound, the “Histopathology, gross changes” value ([2]; 10 days) was “no significant gross changes were observed”, the “Decrease in body weights compared to vehicle” value ([2]; high dose (50 mg/kg/day), 10 days) was 5-8% and the “Histopathology, thymus” value ([2]; males at ≥7.5 mg/kg/day, females at 50 mg/kg/day) was “minimal/mild lymphoid depletion”. The “Mortality and clinical signs” value ([2]; oral 10 days, any dose level) was “No mortality or clinical signs were observed”, the Tolerability ([2]; oral, 1, 7.5, 20, 50 mg/kg/day) was “well-tolerated for 10 days” and the “Histopathology, spleen” value ([2]; primarily at doses ≥20 mg/kg/day) was “minimal/mild lymphoid depletion of the marginal zone and periarteriolar lymphoid sheaths (PALS)”. For the same compound, the Clinical pathology ([2]; primarily in 20 and 50 mg/kg/day groups) was “minimal changes in neutrophils, lymphocytes, and fibrinogen”, the dose-exposure relationship [3] was “dose-exposure proportionality” and the M1 macrophage differentiation [4] was “did not have an observable effect”. The “M2 macrophage marker ARG-1” value (M2 macrophage markers) was “reduced”, the “M2 macrophage marker VEGF” value (M2 macrophage markers) was “reduced” and the tumor growth ([5]; Compound BB alone) was “reduction in tumor growth”. For the same compound, the tumor growth ([5]; co-administration of Compound BB and 5-FU) was “further reduction”, the “activity in the Lewis Lung Carcinoma model” value (Lewis Lung Carcinoma [6]) was “single agent activity” and the IC50 ([7]; read-out: IC50, CXCL12 induced p-AKT, differentiated and M1 polarized macrophage) was ~14 nM. For the same compound, the IC50 ([7]; read-out: IC50, CXCL12 induced p-AKT, differentiated and M2 polarized macrophage) was ~8.4 nM, the “Number of infiltrating TAMs (flow cytometry, FIG. 38A)” value (Lewis Lung Carcinoma [8]) was “the number of infiltrating TAMs was decreased” and the “Tumor growth (FIGS. 25A and 25B)” value (Lewis Lung Carcinoma [8]; single agent) was “demonstrated single agent activity”. The “CD206 staining (M2 macrophages, FIG. 39)” value (Lewis Lung Carcinoma [8]; vs control) was “CD206 staining was reduced”, the “effect of the combination (isobologram)” value (TMD8 cell line) was “synergistic effect” and the ARG1 [9] was “suppresses”. For the same compound, the VEGF [9] was “suppresses”.
